Laboratory results published in patent US5464748A, “Method of detecting and monitoring levels of 3'-amino-3'-deoxythymidine in body fluids and antibodies for same” (The UAB Research Foundation, priority 1993, dated 1995).

What was measured:
[1] = tested on: granulocyte macrophage colony-forming units (CFU-GM); assay: toxicity to granulocyte macrophage colony-forming units; assay type: cell-based; settings: compared with AZT
[2] = tested on: antiviral activity of AZT; assay: effect of AMT on antiviral activity of AZT
[3] = tested on: erythroid burst-forming units (BFU-E); assay: toxicity to erythroid burst-forming units; assay type: cell-based; settings: compared with AZT
[4] = recently discovered; Cretton et al 1991; cited from earlier work
[5] = tested on: bone marrow cells; settings: AZT treatment; cited from earlier work
[6] = tested on: Human Immunodeficiency Virus (HIV); settings: HIV infected patients; cited from earlier work
[7] = pharmacokinetics and metabolism of AZT: hepatic catabolites; assay type: in vivo, human; settings: in addition to GAZT

Structure (SMILES)	toxicity to CFU-GM relative to AZT [1]	effect on the antiviral activity of AZT ([2]; concentrations as low as a 1:1 molar ratio with AZT)	interference with the antiviral activity of AZT ([2]; stated as believed, no concentration given)	toxicity to BFU-E relative to AZT [3]	hepatic catabolite of AZT [4]	toxicity to bone marrow cells [5]	clinical benefits [6]	hepatic catabolites of AZT [7]
Cc1cn([C@H]2C[C@H](N)[C@@H](CO)O2)c(=O)[nH]c1=O [AMT, 3'-amino-3'-deoxythymidine]	many more times toxic	adverse effect on the antiviral activity of AZT	believed to interfere with the antiviral activity of AZT	many more times toxic	–	–	–	–
Cc1cn([C@H]2C[C@H](N=[N+]=[N-])[C@@H](CO)O2)c(=O)[nH]c1=O [AZT, 3'-azido-3'-deoxythymidine]	–	–	–	–	3'-amino-3'-deoxythymidine (AMT)	toxicity to bone marrow cells, manifested by anemia and neutropenia	increased survival, decreased number of opportunistic infections, and partial improvement in neurologic manifestations	3'-amino-3'-deoxythymidine (AMT) and its 5'-O-glucuronide(GAMT)
